Test results taken from US10808001B2, “Biflavone-cobalt complex, preparation method and application thereof” (NANJING FORESTRY UNIVERSITY, priority 2017, dated 2020).

Experiments:
[1] = Pyrogallol auto-oxidation method, O2^−. free radical scavenging; settings: Tris-HCl pH 8.20, 25° C., 322 nm, read-out: IC50 to scavenge O2^−. free radical
Experimental: The free radical scavenging capacity and the total antioxidant capacity of the Ame and the Ame-Co complex were studied by pyrogallol auto-oxidation method, ABTS method and FRAP method with the following steps:
(1) Pyrogallol Auto-Oxidation Method
Determination of auto-oxidation rate V0 of pyrogallol: 2 mL Tris-HCl buffer (pH=8.20) was added to a 10 mL sample tube at 25° C., 100 μL DMSO was added as a control, after adding 0.8 mL distilled water, 0.2 mL pyrogallol solution having a concentration of 2 mmol·L^−1 was added, the mixture was poured into a cuvette after mixing uniformly, the absorbance at 322 nm was measured with pure water as a blank, the A value was recorded every 10 s for a total of 4 min, linear regression was performed with t as the abscissa, and A as the ordinate, straight line slope thereof is V0, and the measurement was performed for three times to obtain an average value. […]

[2] = test system: cervical cancer cells (HeLa); experiment: MTT method, inhibition of cervical cancer cells (HeLa); assay type: cell-based; settings: Homo sapiens, absorbance at 595 nm, modified Karber formula, read-out: IC50, inhibition of growth of cervical cancer cells (HeLa)
Experimental: (§1) The antitumor activity of Ame and Ame-Co complex were studied by MTT method with the following process:
(§2) (1) The HepG2 and HeLa cell suspensions were inoculated into 96-well culture plates, 100 μL was added for each well, (1×10^5/mL), and then cultured in a 5% CO2 incubator at 37° C. for 24 h;
(§3) (2) After culturing for 24 h, the supernatant was discarded, 100 μL of pre-diluted sample was added, 10 replicate wells were set for each concentration, and then incubated in the 5% CO2 incubator for 24 h; meanwhile, control wells (DMSO, cell suspension, MTT), and blank wells (medium, DMSO, MTT) were set;
(§4) (3) After culturing for […], the supernatant was discarded, 100 μL of DMEM medium containing MTT (5 mg/mL) were added, and then continuously cultured for 4 h; […]
(§5) Where, IR is the inhibition rate, OD0 is the absorbance of the control group, OD1 is the absorbance of the sample group, Xm is lg (the maximum dose), I is lg (the maximum dose/adjacent dose), P is the sum of positive reaction rates, Pm is the maximum positive reaction rate, and Pn is the minimum positive reaction rate.

hepatoma cells (HepG2) = experiment: MTT method, inhibition of hepatoma cells (HepG2); assay type: cell-based; settings: Homo sapiens, HepG2, absorbance at 595 nm, modified Karber formula, read-out: IC50, inhibition of growth of hepatoma cells (HepG2)
Experimental: as §1, §2, §3, §4, §5

herring sperm DNA (fDNA) = experiment: Interaction with fDNA by UV-vis spectroscopy, fluorescence spectroscopy (fDNA-EB system) and viscosity method; assay type: binding; settings: UV-vis, fluorescence (fDNA-EB) and viscosity methods
Text: UV-vis spectroscopy, fluorescence spectroscopy and viscosity method are used to study the interaction between the Ame/Ame-Co complex and herring sperm DNA (fDNA) to further reveal the mechanism of antitumor activity, the obtained spectra are shown in FIGS. 7-11.

[3] = FRAP method, total antioxidant capacity; settings: Fe^3+-TPTZ, 37° C., 30 min, 593 nm
Experimental: Drawing of the standard curve of FeSO4.7H2O: different volumes of FeSO4.7H2O solution were added to NaAc—HAc buffer (pH=3.6) to prepare Fe^2+ solution with different concentrations. 0.5 mL TPTZ solution, 0.1 mL DMSO, and 1.9 mL NaAc—HAc buffer containing Fe^2+ were successively added into a 10 mL sample tube, after reacting for 5 min at 37° C., the UV-vis spectrum was measured, and the absorption intensity at 593 nm was recorded, and the standard curve was drawn with absorbance (A) as the vertical coordinate and Fe^2+ concentration as the horizontal coordinate.
Determination of total antioxidant capacity of the sample: 0.5 mL TPTZ solution, 0.5 mL ferric chloride solution, 0.1 mL DMSO solution containing samples of different concentrations, and 1.5 mL NaAc—HAc buffer were successively added into a 10 mL sample tube, after reacting for 30 min at 37° C., the UV-vis spectrum was measured, and the absorption intensity A1 at 593 nm was recorded, the absorbance A1 of the sample was converted to the corresponding Fe^2+ ion concentration according to the standard curve of ferrous sulfate, and the curve was drawn with the sample concentration (csample) as the horizontal coordinate and the corresponding Fe^2+ concentration (cFe2+) as the vertical coordinate. […]

Compound	IC50 [1] [µM]	IC50 [2] [µM]	IC50 (hepatoma cells (HepG2)) [µM]	manner of interaction with fDNA (herring sperm DNA (fDNA))	total antioxidant capacity compared with Ame at the same concentration [3]	strength of interaction with fDNA compared with Ame (herring sperm DNA (fDNA))
O=c1cc(-c2ccc(O)c(-c3c(O)cc(O)c4c(=O)cc(-c5ccc(O)cc5)oc34)c2)oc2cc(O)cc(O)c12 [Ame, amentoflavone]	23.3	8.04	13.6	in the intercalation manner	–	–
CS(C)=[O+][Co-4]1([O+]=S(C)C)[O+]=C2C=C(c3ccc(O)cc3)Oc3c2c(cc(O)c3-c2cc(-c3cc(=O)c4c(O)cc(O)cc4o3)ccc2O)[OH+]1 [Ame-Co complex, amentoflavone-cobalt (Ame-Co) complex]	4.74	–	–	in the intercalation manner	significantly stronger than that of Ame	stronger than that between the Ame and the fDNA
